Data published in patent US20110045101A1, “FUNGICIDAL SUBSTITUTED AZOLES” (E.I. Du Pont De Nemours and Company, priority 2009, published 2011).
Where two headings read alike, the source gives them in different places. Marks after values point to notes of the source that are not given here.

What was measured:
Format in all cases: in vivo
Alternaria solani = assay: Test D: tomato early blight, sprayed the day before inoculation, visual disease rating; settings: 100 = 100% disease control
Summary of the method: (§1)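 Ratings reflect a 200 ppm spray (≈500 g/ha) unless marked as 40 ppm. Plants were sprayed to run-off. The spray suspension was acetone/purified water 50/50 containing 250 ppm Trem 014, after first dissolving compound in acetone at 3% of final volume.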

Plasmopara viticola = assay: Test A: grape downy mildew, test suspension sprayed after inoculation of grape seedlings, visual disease rating; settings: 200 ppm, 100 = 100% disease control
Text: General protocol for preparing test suspensions for Tests A-J: The test compounds were first dissolved in acetone in an amount equal to 3% of the final volume and then suspended at the desired concentration (in ppm) in acetone and purified water (50/50 mix) containing 250 ppm of the surfactant Trem® 014 (polyhydric alcohol esters). The resulting test suspensions were then used in tests A-J. Spraying a 200 ppm test suspension to the point of run-off on the test plants was the equivalent of a rate of 500 g/ha. […] Grape seedlings were inoculated with a spore suspension of Plasmopara viticola (the causal agent of grape downy mildew) and incubated in a saturated atmosphere at 20° C. for 24 h. After a short drying period, the grape seedlings were sprayed with the test suspension to the point of run-off and then moved to a growth chamber at 20° C. for 5 days, after which time the grape seedlings were placed back into a saturated atmosphere at 20° C. for 24 h. Upon removal, visual disease ratings were made. […] A dash (-) indicates no test results.

Botrytis cinerea = assay: Test C: tomato Botrytis on tomato seedlings, sprayed the day before inoculation, visual disease rating; settings: 100 = 100% disease control
Summary of the method: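 Disease scored by eye on tomato seedlings inoculated with Botrytis cinerea a day after treatment. Treatment was a run-off spray at 200 ppm (equivalent to 500 g/ha), or 40 ppm where marked, in acetone/water carrying 250 ppm Trem 014.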

Septoria tritici = assay: Test G: wheat leaf blotch on wheat seedlings, sprayed the day before inoculation, visual disease rating; settings: 100 = 100% disease control
Summary of the method: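 Compounds dissolved in acetone (3% of final volume), then suspended in 50/50 acetone/water with 250 ppm Trem® 014 and sprayed to run-off on seedlings at 200 ppm (≈500 g/ha) or 40 ppm where marked. Inoculation with spores followed next day; visual rating after 48 h saturated at 24° C plus 19 days at 20° C.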

Septoria nodorum = assay: Test F: wheat glume blotch on wheat seedlings, sprayed the day before inoculation, visual disease rating; settings: 100 = 100% disease control
Summary of the method: as §1

Rhizoctonia solani = assay: Test B: turf brown patch on bentgrass seedlings, sprayed the day before inoculation, visual disease rating; settings: 200 ppm, 100 = 100% disease control
Text: General protocol for preparing test suspensions for Tests A-J: The test compounds were first dissolved in acetone in an amount equal to 3% of the final volume and then suspended at the desired concentration (in ppm) in acetone and purified water (50/50 mix) containing 250 ppm of the surfactant Trem® 014 (polyhydric alcohol esters). The resulting test suspensions were then used in tests A-J. Spraying a 200 ppm test suspension to the point of run-off on the test plants was the equivalent of a rate of 500 g/ha. […] The test suspension was sprayed to the point of run-off on bentgrass (Agrostis sp.) seedlings. […] A dash (-) indicates no test results. All results are for 200 ppm except where followed by “*”, which indicates 40 ppm.

[1] = system: Erysiphe graminis f. sp. tritici; assay: Test J: wheat powdery mildew on wheat seedlings, sprayed the day before inoculation, visual disease rating; settings: 100 = 100% disease control
Summary of the method: as §1

[2] = system: Puccinia recondita f. sp. tritici; assay: Test I: wheat leaf rust on wheat seedlings, sprayed the day before inoculation, visual disease rating; settings: 100 = 100% disease control
Summary of the method: as §1

Phytophthora infestans = settings: 200 ppm, 100 = 100% disease control
[3] = system: Puccinia recondita f. sp. tritici; assay: Test H: wheat leaf rust, test suspension sprayed after inoculation of wheat seedlings, visual disease rating; settings: 100 = 100% disease control
Summary of the method: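 Wheat seedlings inoculated with P. recondita spores, held 24 h saturated at 20 °C, then 2 days in growth chamber at 20 °C; compound suspension (acetone/water with Trem 014) sprayed to run-off afterwards. Rated visually; 200 ppm (≈500 g/ha) unless marked *, which denotes 40 ppm.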

[4] = 200 ppm, 0 = no control relative to controls
[5] = 0 = no control relative to controls
[6] = 40 ppm (marked *), 0 = no control

| Structure (SMILES) | Test D disease control rating (Alternaria solani; [4]) | Test C disease control rating (Botrytis cinerea; [4]) | Test G disease control rating (Septoria tritici; [4]) | Test F disease control rating (Septoria nodorum; [4]) | Test J disease control rating [1, 4] | Test I disease control rating [2, 4] | Test H disease control rating [3, 4] | further results |
| --- | --- | --- | --- | --- | --- | --- | --- | --- |
| Fc1ccc(-n2cnc(Cl)c2-c2ccc(F)cc2Cl)cc1 [compound 178] |  |  |  |  |  |  |  | Test D disease control rating (Alternaria solani; 200 ppm, 0 = no control): 99%; Test A disease control rating (Plasmopara viticola; 0 = no control): 9%; Test C disease control rating (Botrytis cinerea; 200 ppm, 0 = no control): 99%; Test G disease control rating (Septoria tritici; 200 ppm, 0 = no control): 100%; Test F disease control rating (Septoria nodorum; 200 ppm, 0 = no control): 0%; Test B disease control rating (Rhizoctonia solani; 0 = no control): 0%; Test J disease control rating ([1]; 200 ppm, 0 = no control): 100%; Test I disease control rating ([2]; 200 ppm, 0 = no control): 74% |
| Fc1ccc(-c2c(Cl)ncn2-c2ccc(Cl)c(F)c2)c(Cl)c1 [compound 191] |  |  |  |  |  |  |  | Test D disease control rating (Alternaria solani; 200 ppm, 0 = no control): 26%; Test A disease control rating (Plasmopara viticola; 0 = no control): 0%; Test C disease control rating (Botrytis cinerea; 200 ppm, 0 = no control): 99%; Test G disease control rating (Septoria tritici; 200 ppm, 0 = no control): 97%; Test E disease control rating (Phytophthora infestans; 0 = no control): 29%; Test F disease control rating (Septoria nodorum; 200 ppm, 0 = no control): 0%; Test B disease control rating (Rhizoctonia solani; 0 = no control): 0%; Test J disease control rating ([1]; 200 ppm, 0 = no control): 93%; Test I disease control rating ([2]; 200 ppm, 0 = no control): 80% |
| Cc1cc(C)nc(-c2cnnn2-c2cc(Cl)cc(Cl)c2)n1 [compound 644] | 0% | 94% | 0% | 0% | 0% | 0% |  | Test A disease control rating (Plasmopara viticola; [5]): 0%; Test E disease control rating (Phytophthora infestans; [5]): 0% |
| Cc1nn(C)c(-c2ccc(Cl)c(F)c2)c1-c1c(F)cc(F)cc1F [compound 104] | 98% | 92% | 32% | 0% | 95% | 0% |  | Test E disease control rating (Phytophthora infestans; [5]): 0%; Test B disease control rating (Rhizoctonia solani; [5]): 0% |
| COc1cc(F)c(-c2c(C)nn(C)c2-c2ccc(Cl)c(F)c2)c(F)c1 [compound 115] | 99% | 99% | 99% | 98% | 100% | 98% |  | Test E disease control rating (Phytophthora infestans; [5]): 0%; Test B disease control rating (Rhizoctonia solani; [5]): 99% |
| Cc1ccc(-n2cnc(Cl)c2-c2c(F)cccc2Cl)cc1 [compound 181] |  |  |  |  |  |  |  | Test D disease control rating (Alternaria solani; 200 ppm, 0 = no control): 0%; Test C disease control rating (Botrytis cinerea; 200 ppm, 0 = no control): 99%; Test G disease control rating (Septoria tritici; 200 ppm, 0 = no control): 94%; Test F disease control rating (Septoria nodorum; 200 ppm, 0 = no control): 0%; Test B disease control rating (Rhizoctonia solani; 0 = no control): 24%; Test J disease control rating ([1]; 200 ppm, 0 = no control): 99%; Test I disease control rating ([2]; 200 ppm, 0 = no control): 98% |
| COc1cc(F)c(-c2c(C)nn(C)c2-c2ccc(Cl)c(OC)c2)c(F)c1 [compound 111] | 99% | 99% | 100% | 100% | 99% | 89% |  | Test E disease control rating (Phytophthora infestans; [5]): 0%; Test B disease control rating (Rhizoctonia solani; [5]): 81% |
| Fc1ccc(-n2cnc(Cl)c2-c2c(F)cccc2Cl)cc1 [compound 180] |  |  |  |  |  |  |  | Test D disease control rating (Alternaria solani; 200 ppm, 0 = no control): 99%; Test A disease control rating (Plasmopara viticola; 0 = no control): 0%; Test C disease control rating (Botrytis cinerea; 200 ppm, 0 = no control): 99%; Test G disease control rating (Septoria tritici; 200 ppm, 0 = no control): 98%; Test F disease control rating (Septoria nodorum; 200 ppm, 0 = no control): 0%; Test B disease control rating (Rhizoctonia solani; 0 = no control): 88%; Test J disease control rating ([1]; 200 ppm, 0 = no control): 100%; Test I disease control rating ([2]; 200 ppm, 0 = no control): 99% |
| Fc1ccc(-n2c(Br)nc(Br)c2-c2c(F)ccc(F)c2F)cc1 [compound 384] |  |  |  |  |  |  |  | Test H disease control rating [3, 6]: 0* %; Test D disease control rating (Alternaria solani; [6]): 99* %; Test C disease control rating (Botrytis cinerea; [6]): 100* %; Test G disease control rating (Septoria tritici; [6]): 95* %; Test F disease control rating (Septoria nodorum; [6]): 0* %; Test J disease control rating [1, 6]: 95* %; Test I disease control rating [2, 6]: 67* % |
| COc1cc(F)c(-c2c(Cl)nc(Br)n2-c2ccc(OC)nc2)c(F)c1 [compound 705] | 100% | 99% | 99% | 99% | 100% | 100% | 100% |  |
| COc1ccc(F)c(-c2c(Cl)nc(Cl)n2-c2ccc(Cl)cc2)c1F [compound 309] | 100% | 100% | 97% | 100% | 100% | 100% | 11% |  |
| COc1cc(F)c(-n2nnc(C)c2-c2ccc(Cl)cc2)c(F)c1 [compound 595] | 80% | 100% | 96% | 0% | 98% | 74% | 22% |  |
| COc1cc(F)c(-c2c(Cl)nc(Cl)n2Cc2ccc(Cl)nc2)c(F)c1Cl [compound 668] | 99% | 100% | 99% | 91% | 96% | 85% | 0% |  |
| Cn1c(-c2cnc(Cl)n2-c2ccc(Cl)cc2)nc(Cl)c1Br [compound 394] |  |  |  |  |  |  |  | Test H disease control rating [3, 6]: 0* %; Test D disease control rating (Alternaria solani; [6]): 0* %; Test C disease control rating (Botrytis cinerea; [6]): 3* %; Test G disease control rating (Septoria tritici; [6]): 28* %; Test F disease control rating (Septoria nodorum; [6]): 0* %; Test J disease control rating [1, 6]: 0* %; Test I disease control rating [2, 6]: 45* % |
| COc1ccc(-n2c(Br)nc(Br)c2-c2c(F)cccc2F)cn1 [compound 622] | 100% | 100% | 99% | 99% | 100% | 100% | 100% |  |
| N#Cc1ccc(F)c(-c2c(Cl)nc(Br)n2-c2ccc(Cl)cc2)c1F [Compound 419, 3-[2-bromo-4-chloro-1-(4-chlorophenyl)-1H-imidazol-5-yl]-2,4-difluorobenzonitrile] |  |  |  |  |  |  |  | pest or weed control at 200 ppm ([3]; Puccinia recondita, 96 h, 200 ppm, 0 = no control relative to controls): 0%; pest or weed control at 200 ppm (Alternaria solani; Alternaria solani, 168 h, 200 ppm, 0 = no control relative to controls): 100%; pest or weed control at 200 ppm (Botrytis cinerea; Botrytis cinerea, 120 h, 200 ppm, 0 = no control relative to controls): 100%; pest or weed control at 200 ppm (Septoria tritici; Zymoseptoria tritici, 504 h, 200 ppm, 0 = no control relative to controls): 100%; pest or weed control at 200 ppm (Septoria nodorum; Parastagonospora nodorum, 264 h, 200 ppm, 0 = no control relative to controls): 100%; pest or weed control at 200 ppm ([1]; Blumeria graminis, 168 h, 200 ppm, 0 = no control relative to controls): 99%; pest or weed control at 200 ppm ([2]; Puccinia recondita, 168 h, 200 ppm, 0 = no control relative to controls): 97% |
| COc1ccc(F)c(-c2c(Cl)nc(Br)n2-c2cccc(C)c2)c1F [compound 316] | 99% | 99% | 93% | 95% | 100% | 99% | 6% |  |
| COc1ccc(F)c(-c2c(Cl)nc(Br)n2-c2ccc(Cl)nc2)c1F [compound 730] | 100% | 100% | 100% | 99% | 100% | 99% | 9% |  |
| N#Cc1ccc(F)c(-c2c(Cl)nc(Br)n2-c2ccc(Cl)nc2)c1F [compound 701] | 100% | 100% | 99% | 91% | 95% | 100% | 7% |  |
